# According to article PMC5218480 (PLoS ONE, 2017):
# Tested on: MV-4-11 cells
# Test: Gene expression microarray analysis (Affymetrix PrimeView) and GSEA
# Format: cell-based, human
# Design: RFU PODN (11730768_x_at) / Fold change /veh PODN (11730768_x_at) / RFU LINC00158 (11744669_a_at) / Fold change /veh LINC00158 (11744669_a_at) / RFU DUSP10 (11751237_a_at) / Fold change /veh DUSP10 (11751237_a_at) / RFU ID3 (11757404_x_at) / Fold change /veh ID3 (11757404_x_at) / RFU PLEKHG5 (11737974_s_at) / Fold change /veh PLEKHG5 (11737974_s_at) / RFU LRRC4B (11730491_at) / Fold change /veh LRRC4B (11730491_at) / RFU GIMAP4 (11747438_a_at) / Fold change /veh GIMAP4 (11747438_a_at) / RFU KRT8 (11758183_x_at) / Fold change /veh KRT8 (11758183_x_at) / RFU CNN1 (11734310_a_at) / Fold change /veh CNN1 (11734310_a_at) / RFU VPS37D (11726825_at) / Fold change /veh VPS37D (11726825_at) / RFU C10orf10 (11716522_x_at) / Fold change /veh C10orf10 (11716522_x_at) / RFU KIR2DL2 /// KIR2DL4 /// KIR2DL5A /// KIR2DL5B /// KIR2DS1 /// KIR2DS2 /// KIR2DS3 /// KIR2DS4 /// KIR3DL3 /// KIR3DL3 /// KIR3DS1 (11738374_at) / Fold change /veh KIR2DL2 /// KIR2DL4 /// KIR2DL5A /// KIR2DL5B /// KIR2DS1 /// KIR2DS2 /// KIR2DS3 /// KIR2DS4 /// KIR3DL3 /// KIR3DL3 /// KIR3DS1 (11738374_at) / RFU C1QL1 (11718748_at) / Fold change /veh C1QL1 (11718748_at) / RFU TMPRSS4 (11747572_a_at) / Fold change /veh TMPRSS4 (11747572_a_at) / RFU HAMP (11756126_x_at) / Fold change /veh HAMP (11756126_x_at) / RFU RNFT2 (11725882_a_at) / Fold change /veh RNFT2 (11725882_a_at) / RFU NR4A2 (11747474_a_at) / Fold change /veh NR4A2 (11747474_a_at) / RFU ABCC12 (11746883_a_at) / Fold change /veh ABCC12 (11746883_a_at) / RFU TMEM136 (11760407_x_at) / Fold change /veh TMEM136 (11760407_x_at) / RFU CLDN22 /// WWC2 (11732394_at) / Fold change /veh CLDN22 /// WWC2 (11732394_at) / RFU HLA-DPB1 (11760878_x_at) / Fold change /veh HLA-DPB1 (11760878_x_at) / RFU SPINT1 (11716480_a_at) / Fold change /veh SPINT1 (11716480_a_at) / RFU GAP43 (11754022_s_at) / Fold change /veh GAP43 (11754022_s_at) / RFU A4GNT (11735810_at) / Fold change /veh A4GNT (11735810_at) / RFU PRB3 (11715151_x_at) / Fold change /veh PRB3 (11715151_x_at) / RFU TUBB4B (11761932_at) / Fold change /veh TUBB4B (11761932_at) / RFU CAPN14 (11732068_a_at) / Fold change /veh CAPN14 (11732068_a_at) / RFU TMCC2 (11721928_a_at) / Fold change /veh TMCC2 (11721928_a_at) / RFU IRGQ (11745062_a_at) / Fold change /veh IRGQ (11745062_a_at) / RFU FAM174B (11720279_a_at) / Fold change /veh FAM174B (11720279_a_at) / RFU TMPRSS4 (11748680_a_at) / Fold change /veh TMPRSS4 (11748680_a_at) / RFU FAM212B (11763350_a_at) / Fold change /veh FAM212B (11763350_a_at) / RFU PLEKHG5 (11743358_a_at) / Fold change /veh PLEKHG5 (11743358_a_at) / RFU ZSCAN30 (11745921_a_at) / Fold change /veh ZSCAN30 (11745921_a_at) / RFU CMKLR1 (11741424_a_at) / Fold change /veh CMKLR1 (11741424_a_at) / RFU LOC101060620 /// MAPK8IP1 (11723275_at) / Fold change /veh LOC101060620 /// MAPK8IP1 (11723275_at) / RFU SPTSSB (11747773_x_at) / Fold change /veh SPTSSB (11747773_x_at) / RFU PRSS12 (11739890_at) / Fold change /veh PRSS12 (11739890_at) / RFU BIN1 (11741810_x_at) / Fold change /veh BIN1 (11741810_x_at) / RFU WNT11 (11732464_a_at) / Fold change /veh WNT11 (11732464_a_at) / RFU C10orf10 (11716521_a_at) / Fold change /veh C10orf10 (11716521_a_at) / RFU C5orf56 (11738089_at) / Fold change /veh C5orf56 (11738089_at) / RFU CYB561 (11721691_x_at) / Fold change /veh CYB561 (11721691_x_at) / RFU ANKRD19P (11752326_a_at) / Fold change /veh ANKRD19P (11752326_a_at) / RFU OR2T12 /// OR2T33 /// OR2T8 (11738714_s_at) / Fold change /veh OR2T12 /// OR2T33 /// OR2T8 (11738714_s_at) / RFU VCAN (11748164_a_at) / Fold change /veh VCAN (11748164_a_at) / RFU JSRP1 (11732532_at) / Fold change /veh JSRP1 (11732532_at) / RFU KRTAP10-11 (11738290_x_at) / Fold change /veh KRTAP10-11 (11738290_x_at) / RFU MYO3A (11730013_a_at) / Fold change /veh MYO3A (11730013_a_at) / RFU EBF3 (11725865_a_at) / Fold change /veh EBF3 (11725865_a_at) / RFU CAMK2N1 (11719241_x_at) / Fold change /veh CAMK2N1 (11719241_x_at) / RFU C5orf56 (11738088_a_at) / Fold change /veh C5orf56 (11738088_a_at) / RFU OLFML3 (11715873_a_at) / Fold change /veh OLFML3 (11715873_a_at) / RFU LOC100653217 /// NTM (11731650_a_at) / Fold change /veh LOC100653217 /// NTM (11731650_a_at) / RFU MAPK11 (11762145_a_at) / Fold change /veh MAPK11 (11762145_a_at) / RFU FIZ1 (11724087_x_at) / Fold change /veh FIZ1 (11724087_x_at) / RFU OASL (11726364_x_at) / Fold change /veh OASL (11726364_x_at) / RFU SOX15 (11748057_x_at) / Fold change /veh SOX15 (11748057_x_at) / RFU CD79A (11719716_a_at) / Fold change /veh CD79A (11719716_a_at) / RFU HIST1H1D (11736915_at) / Fold change /veh HIST1H1D (11736915_at) / RFU CASKIN2 (11723855_a_at) / Fold change /veh CASKIN2 (11723855_a_at) / RFU LOC730098 (11760151_x_at) / Fold change /veh LOC730098 (11760151_x_at) / RFU OR4N2 (11742367_at) / Fold change /veh OR4N2 (11742367_at) / RFU PRRT2 (11749266_a_at) / Fold change /veh PRRT2 (11749266_a_at) / RFU SNX32 (11753110_a_at) / Fold change /veh SNX32 (11753110_a_at) / RFU CDHR5 (11726645_a_at) / Fold change /veh CDHR5 (11726645_a_at) / RFU RCAN1 (11760418_a_at) / Fold change /veh RCAN1 (11760418_a_at) / RFU FAM167A (11723789_a_at) / Fold change /veh FAM167A (11723789_a_at) / RFU FAM26E (11764081_at) / Fold change /veh FAM26E (11764081_at) / RFU ISYNA1 (11749810_s_at) / Fold change /veh ISYNA1 (11749810_s_at) / RFU ACY1 (11761880_at) / Fold change /veh ACY1 (11761880_at) / RFU 11764098_at / Fold change /veh 11764098_at / RFU SAMD14 (11745864_x_at) / Fold change /veh SAMD14 (11745864_x_at) / RFU NPB (11741838_a_at) / Fold change /veh NPB (11741838_a_at) / RFU TMPRSS6 (11731388_a_at) / Fold change /veh TMPRSS6 (11731388_a_at) / RFU KRTAP10-2 (11738614_at) / Fold change /veh KRTAP10-2 (11738614_at) / RFU ARHGAP8 /// PRR5-ARHGAP8 (11727945_x_at) / Fold change /veh ARHGAP8 /// PRR5-ARHGAP8 (11727945_x_at) / RFU KRTAP5-7 /// NADSYN1 (11734609_at) / Fold change /veh KRTAP5-7 /// NADSYN1 (11734609_at) / RFU RASL12 (11751679_a_at) / Fold change /veh RASL12 (11751679_a_at) / RFU CDKN2B (11736163_a_at) / Fold change /veh CDKN2B (11736163_a_at) / RFU PRF1 (11729649_at) / Fold change /veh PRF1 (11729649_at) / RFU, ZNF638 /// ZNF638-IT1 / Fold change vs veh, ZNF638 /// ZNF638-IT1 / RFU, PANK3 / Fold change vs veh, PANK3 / RFU, SH3YL1 / Fold change vs veh, SH3YL1 / RFU, ZEB2 / Fold change vs veh, ZEB2 / RFU, NRIP1 / Fold change vs veh, NRIP1 / RFU, PTTG1IP / Fold change vs veh, PTTG1IP / RFU, CAPN2 / Fold change vs veh, CAPN2 / RFU, MED14 / Fold change vs veh, MED14 / RFU, SNORA58 / Fold change vs veh, SNORA58 / RFU, C1orf63 / Fold change vs veh, C1orf63 / RFU, LRRFIP1 / Fold change vs veh, LRRFIP1 / RFU, NDUFAF7 / Fold change vs veh, NDUFAF7 / RFU, SLC12A2 / Fold change vs veh, SLC12A2 / RFU, IBTK / Fold change vs veh, IBTK / RFU, ESF1 / Fold change vs veh, ESF1 / Fold change vs veh, TMEM50B / RFU, TAOK1 / Fold change vs veh, TAOK1 / RFU, ACBD3 / Fold change vs veh, ACBD3 / RFU, TMA16 / Fold change vs veh, TMA16 / RFU, RWDD3 / Fold change vs veh, RWDD3 / RFU, BCAT1 / Fold change vs veh, BCAT1 / RFU, EDEM3 / Fold change vs veh, EDEM3 / RFU, TMEM33 / Fold change vs veh, TMEM33 / RFU, WDR75 / Fold change vs veh, WDR75 / RFU, AHCTF1 / Fold change vs veh, AHCTF1 / RFU, TFRC / Fold change vs veh, TFRC / RFU, ZDHHC17 / Fold change vs veh, ZDHHC17 / RFU, NOM1 / Fold change vs veh, NOM1 / RFU, ARL8B / Fold change vs veh, ARL8B / RFU, ZBTB11 / Fold change vs veh, ZBTB11 / RFU, TAMM41 / Fold change vs veh, TAMM41 / RFU, KIAA1704 /// LOC100996395 / Fold change vs veh, KIAA1704 /// LOC100996395 / RFU, ING1 / Fold change vs veh, ING1 / RFU, TRMT61B / Fold change vs veh, TRMT61B / RFU, FUBP3 / Fold change vs veh, FUBP3 / RFU, TP53 / Fold change vs veh, TP53 / RFU, TNKS2 / Fold change vs veh, TNKS2 / RFU, ZFP14 / Fold change vs veh, ZFP14 / RFU, ACTR2 / Fold change vs veh, ACTR2 / RFU, PPP3R1 / Fold change vs veh, PPP3R1 / RFU, PIK3R1 / Fold change vs veh, PIK3R1 / RFU, HNRNPA1 / Fold change vs veh, HNRNPA1 / RFU, RNF170 / Fold change vs veh, RNF170 / RFU, ZNF28 / Fold change vs veh, ZNF28 / RFU, RNGTT / Fold change vs veh, RNGTT / RFU, OGT / Fold change vs veh, OGT / RFU, BRD1 / Fold change vs veh, BRD1 / RFU, MARS / Fold change vs veh, MARS / RFU, ZNF655 / Fold change vs veh, ZNF655 / RFU, FAHD1 / Fold change vs veh, FAHD1 / RFU, BDP1 / Fold change vs veh, BDP1 / RFU, LRRCC1 / Fold change vs veh, LRRCC1 / RFU, ARID1A / Fold change vs veh, ARID1A / RFU, ZNF146 / Fold change vs veh, ZNF146 / RFU, ZNF330 / Fold change vs veh, ZNF330 / RFU, GPN3 / Fold change vs veh, GPN3 / RFU, C9orf123 / Fold change vs veh, C9orf123 / RFU, N4BP2L2 / Fold change vs veh, N4BP2L2 / RFU, ARFIP1 / Fold change vs veh, ARFIP1 / RFU, FAM179B / Fold change vs veh, FAM179B / RFU, BCL10 / Fold change vs veh, BCL10 / RFU, UHRF1BP1L / Fold change vs veh, UHRF1BP1L / RFU, BET1 / Fold change vs veh, BET1 / RFU, CNOT2 / Fold change vs veh, CNOT2 / RFU, ZNF268 / Fold change vs veh, ZNF268 / Fold change vs veh, ZNF507 / RFU, DGCR2 / Fold change vs veh, DGCR2 / RFU, WDSUB1 / Fold change vs veh, WDSUB1 / Fold change vs veh, HSP90B1 /// MIR3652 / RFU, ADSS / Fold change vs veh, ADSS / RFU, GK / Fold change vs veh, GK / RFU, ZNF148 / Fold change vs veh, ZNF148 / RFU, TAF9 / Fold change vs veh, TAF9 / RFU, SLC1A5 / Fold change vs veh, SLC1A5 / RFU, SLMO2 / Fold change vs veh, SLMO2 / RFU, ABCC4 / Fold change vs veh, ABCC4 / RFU, LOC101060439 /// RAP1B / Fold change vs veh, LOC101060439 /// RAP1B / RFU, RFX7 / Fold change vs veh, RFX7 / RFU, GTPBP10 / Fold change vs veh, GTPBP10 / RFU, CNEP1R1 / Fold change vs veh, CNEP1R1 / RFU, BIVM-ERCC5 /// ERCC5 / Fold change vs veh, BIVM-ERCC5 /// ERCC5 / RFU, ILF3 / Fold change vs veh, ILF3 / RFU 11762660_at / Fold change /veh 11762660_at / RFU VCAN (11757783_s_at) / Fold change /veh VCAN (11757783_s_at) / RFU DDX43 (11728927_at) / Fold change /veh DDX43 (11728927_at) / RFU KRT8 (11758188_x_at) / Fold change /veh KRT8 (11758188_x_at) / RFU NKD1 (11759106_at) / Fold change /veh NKD1 (11759106_at) / RFU SRD5A1 (11742802_a_at) / Fold change /veh SRD5A1 (11742802_a_at) / RFU TPSAB1 /// TPSB2 (11721975_s_at) / Fold change /veh TPSAB1 /// TPSB2 (11721975_s_at) / RFU GSTM3 (11746129_a_at) / Fold change /veh GSTM3 (11746129_a_at) / RFU IL23R (11737362_x_at) / Fold change /veh IL23R (11737362_x_at) / RFU TMEM51 (11727254_a_at) / Fold change /veh TMEM51 (11727254_a_at) / RFU PIWIL2 (11732686_x_at) / Fold change /veh PIWIL2 (11732686_x_at) / RFU ORM1 (11744905_x_at) / Fold change /veh ORM1 (11744905_x_at) / RFU CCDC152 (11743942_at) / Fold change /veh CCDC152 (11743942_at) / RFU ECM1 (11717891_a_at) / Fold change /veh ECM1 (11717891_a_at) / RFU IL23R (11748794_a_at) / Fold change /veh IL23R (11748794_a_at) / RFU TNFAIP8L3 (11732012_x_at) / Fold change /veh TNFAIP8L3 (11732012_x_at) / RFU MBOAT4 (11741988_at) / Fold change /veh MBOAT4 (11741988_at) / RFU 11764193_at / Fold change /veh 11764193_at / RFU TMEM53 (11763286_at) / Fold change /veh TMEM53 (11763286_at) / RFU MAGEB2 (11727129_at) / Fold change /veh MAGEB2 (11727129_at) / RFU TMEM200A (11744735_a_at) / Fold change /veh TMEM200A (11744735_a_at) / RFU CCDC152 (11751479_a_at) / Fold change /veh CCDC152 (11751479_a_at) / RFU FAM211A (11726209_a_at) / Fold change /veh FAM211A (11726209_a_at) / RFU RGS16 (11746705_a_at) / Fold change /veh RGS16 (11746705_a_at) / RFU VCAN (11755009_s_at) / Fold change /veh VCAN (11755009_s_at) / RFU RHOB (11743442_s_at) / Fold change /veh RHOB (11743442_s_at) / RFU RGS16 (11720943_a_at) / Fold change /veh RGS16 (11720943_a_at) / RFU RGS16 (11720944_at) / Fold change /veh RGS16 (11720944_at) / RFU, VPS4B / Fold change vs veh, VPS4B / RFU, CREB1 / Fold change vs veh, CREB1 / RFU, DNAJC13 / Fold change vs veh, DNAJC13 / RFU, GNAQ / Fold change vs veh, GNAQ / RFU, CDK5R1 / Fold change vs veh, CDK5R1 / RFU, ZRANB3 / Fold change vs veh, ZRANB3 / RFU, CUL4A / Fold change vs veh, CUL4A / RFU, CCNY / Fold change vs veh, CCNY / RFU, UFL1 / Fold change vs veh, UFL1 / RFU, COG3 / Fold change vs veh, COG3 / RFU, DIAPH2 / Fold change vs veh, DIAPH2 / RFU, SKA2 / Fold change vs veh, SKA2 / RFU, AFF3 / Fold change vs veh, AFF3 / RFU, LMF1 / Fold change vs veh, LMF1 / RFU, IPO11 / Fold change vs veh, IPO11 / RFU, DFFB / Fold change vs veh, DFFB / RFU, FOXP1 / Fold change vs veh, FOXP1 / RFU, CARD8 / Fold change vs veh, CARD8 / RFU, STRN3 / Fold change vs veh, STRN3 / RFU, ADK / Fold change vs veh, ADK / RFU, RASSF2 / Fold change vs veh, RASSF2 / RFU, WIPF1 / Fold change vs veh, WIPF1 / RFU, LARP1B / Fold change vs veh, LARP1B / RFU, RASA1 / Fold change vs veh, RASA1 / RFU, RB1 / Fold change vs veh, RB1 / RFU, PPFIA1 / Fold change vs veh, PPFIA1 / RFU, MAT2A / Fold change vs veh, MAT2A / RFU, CCT5 / Fold change vs veh, CCT5 / RFU, WDR92 / Fold change vs veh, WDR92 / RFU, CUX1 / Fold change vs veh, CUX1 / RFU, TTC7A / Fold change vs veh, TTC7A / RFU, TMEM135 / Fold change vs veh, TMEM135 / RFU, DEPTOR / Fold change vs veh, DEPTOR / RFU, CPM / Fold change vs veh, CPM / RFU, DNAJB6 / Fold change vs veh, DNAJB6 / RFU, CACNA2D3 / Fold change vs veh, CACNA2D3 / RFU, DTX4 / Fold change vs veh, DTX4 / RFU, TFCP2 / Fold change vs veh, TFCP2 / RFU, GMCL1 /// GMCL1P1 / Fold change vs veh, GMCL1 /// GMCL1P1 / RFU, AEBP2 / Fold change vs veh, AEBP2 / RFU, SNHG1 /// SNORD22 /// SNORD25 /// SNORD26 /// SNORD27 /// SNORD28 /// SNORD29 /// SNORD31 / Fold change vs veh, SNHG1 /// SNORD22 /// SNORD25 /// SNORD26 /// SNORD27 /// SNORD28 /// SNORD29 /// SNORD31 / Fold change (Aza/veh), C12orf56 (ProbeSet 11735607_a_at) / Fold change (ACY-1035/veh), C12orf56 (ProbeSet 11735607_a_at) / Fold change (Aza/veh), FGFR1OP (ProbeSet 11751329_s_at) / Fold change (ACY-1035/veh), FGFR1OP (ProbeSet 11751329_s_at) / Fold change (Aza/veh), VPS36 (ProbeSet 11739960_a_at) / Fold change (ACY-1035/veh), VPS36 (ProbeSet 11739960_a_at) / RFU SYPL1 (11715823_x_at) / Fold change /veh SYPL1 (11715823_x_at) / RFU IGFBP7 (11715501_s_at) / Fold change /veh IGFBP7 (11715501_s_at) / RFU REEP3 (11722064_at) / Fold change /veh REEP3 (11722064_at) / RFU IGLL1 (11728026_x_at) / Fold change /veh IGLL1 (11728026_x_at): dose or concentration left out as unconfirmed
# Settings: ProbeSet 11716865_a_at; LIST B
smiles,measurement,value
Nc1ncn([C@@H]2O[C@H](CO)[C@@H](O)[C@H]2O)c(=O)n1 [azacitidine],"RFU, SLC1A5",258.33 RFU
